Assay results from patent publication US12268671B2, “IL-8 inhibitors for use in the treatment of chemotherapy-induced peripheral neuropathy” (DOMPÉ FARMACEUTICI S.P.A., priority 2016, dated 2025).

How the values were obtained:
[1] = tested on: F-11 cell line; test: Paclitaxel-induced cytoskeleton modifications, immunofluorescence in differentiated F11 neurons; format: cell-based, mouse/rat; details: 24 hours
Description: In this study, the effects of paclitaxel, administered alone or in combination with reparixin (DF1681Y; R-(−)-2-(4-isobutylphenyl)propionyl methanesulfonamide) dissolved in aqueous solution of lysine to form the in situ salt, on the cytoskeleton components and organization was performed. As experimental model, a F-11 cell line, a fusion product of mouse neuroblastoma cell line N18TG-2 cells with embryonic rat dorsal root ganglia sensory neurons, was used. These cells were selected because of the presence of neuronal markers and properties that are unique to the parental rat sensory neurons.
F11 (ECACC, Salisbury, UK) cells were cultivated DMEM (Euroclone, MI, Italy) medium supplemented with 10% FBS, USA origin, (Sigma-Aldrich St. Louis, CO, USA), 1% penicillin/streptomycin (Euroclone) and 1% glutamine (Euroclone). After, cells were differentiated with mouse NGF (mNGF) dissolved in DMEM with 1% penicillin/streptomycin and 1% glutamine (FBS free) at the final concentration 50 ng/ml. Medium was replaced every 3 days until complete differentiation, occurred after 7 days. Neurons were not treated (controls) or treated for 24 hours with reparixin [10 μM final concentration], paclitaxel (Sigma-Aldrich) [10 nM final concentration] and the combination of the two molecules.
Cells were fixed in paraformaldehyde 4% in PBS for 20 min at RT and permeabilized in methanol for 5 min at −20° C. Cells were then blocked with PBS containing 4% BSA for 30 min and incubated with primary antibodies diluted in the blocking solution overnight at 4° C.: rabbit β-tubulin (Abcam, Cambridge, UK) 1:500; mouse α-tubulin (Abcam) 1:200 and mouse α-tubulin acetylated (Abcam) 1:1000. Cells were then rinsed in PBS several times before incubation with secondary antibodies, goat anti rabbit conjugated with Alexafluor 633 (1:2000), and goat anti mouse conjugated with Alexafluor 488 (1:2000), (Life Technologies, CA, USA) for 30 min at RT. After extensive washing coverslips were mounted with Vectashield mounting medium with DAPI (Vector Laboratories Burlingame, CA, USA) and then observed at confocal laser microscope.

[2] = tested on: Male Wistar rats; test: Paclitaxel-induced mechanical allodynia (Dynamic Plantar Aesthesiometer); format: in vivo, rat; details: paclitaxel model
Description: (§1) Male Wistar rats (200-250 g, Harlan Italy) were housed in a room with controlled temperature (22±1° C.), humidity (60±10%) and light (12 h per day); food and water were available ad libitum.
(§2) The rats received: • 1—four once a day intraperitoneal (i.p.) injections of either paclitaxel (Tocris, Italy) (2 mg/kg/day i.p.; cumulative dose of 8 mg/kg i.p.) or vehicle (saline, 1 ml/kg/day i.p.), administered on alternate days (days 0, 2, 4, and 6), as described in Polomano et al, Pain 2001, 94:293-294. Behavioral testing was performed prior to paclitaxel/vehicle administration (day-1), and again on days 5-7-10-14 following paclitaxel/vehicle injection; • or • 2—oxaliplatin (2.4 mg/kg) dissolved in 5% glucose solution which was administered intraperitoneally (i.p.) at a volume of 0.5 mL/rat, for 5 consecutive days every week for 3 weeks, as described in Cavaletti et al., Eur. J. Cancer, 2001 37, 2457-63. Behavioral testing was performed before oxaliplatin/vehicle administration (day-1), and at again on day 3-5-7-10-14-21 day following oxaliplatin/vehicle injection.
(§3) DF2726A (30 mg/kg) (5 mg/1 ml, 0.5 ml/os/rat) was dissolved in 10% SOLUTOL-HS15 and N-methylpyrrolidone (NMP) (SOLUTOL:NMP 2:1 w/v) and 90% PBS 1×, and was administered once a day from day −3 up to day 11 after paclitaxel administration. Anti-allodynic effects were assessed on day 5, 7, 10 and 14 after paclitaxel administration. Control animals received vehicle (10% SOLUTOL-NMP 2:1 w/v and PBS, 5 mg/1 ml; 0.5 m1/os/rat).
(§4) DF1681B was administered by continuous subcutaneous infusion using the ALZET osmotic pumps Model 2ML2 (Charles River). In details, DF1681B (9.37 g) was dissolved in sterile saline (25 ml) at a concentration of 375 mg/ml and vortexed for 10 min. Osmotic pumps were implanted under anesthesia (100 mg/kg ketamine and 10 mg/kg xylazine i.p.) through a surgical incision between the scapulae. Pumps were implanted 3 days before first paclitaxel injection (day-3). Drug delivery was carried out continuously until day +11. Control animals received vehicle (sterile saline).
To assess the development of mechanical allodynia, sensitivity to tactile stimulation was measured using the Dynamic Plantar Aesthesiometer (DPA, Ugo Basile, Italy). Animals were placed in a chamber with a mesh metal floor covered by a plastic dome that enabled the animal to walk freely, but not to jump. The mechanical stimulus were then delivered in the mid-plantar skin of the hind paw. The cut-off was fixed at 50 g. […]
(§5) All data were presented as the mean±SEM. The significance of differences between groups was determined by two-way analyses of variance (ANOVA) followed by Bonferroni post hoc tests for multiple comparisons. […]

[3] = tested on: Male Wistar rats; test: Paclitaxel-induced cold allodynia (acetone test); format: in vivo, rat; details: paclitaxel model
Description: as §1, §2, §3, §4
(§6) Cold sensitivity was measured as the number of foot withdrawal responses after application of acetone to the dorsal surface of the paw (2). A drop of acetone was applied to the dorsal surface of paws with a syringe connected to a thin polyethylene tube while the rats was standing on a metal mesh. […] Cold responses were measured on both paws before (day −1) and, then on 5, 7, 10 and 14 days after paclitaxel/vehicle administration or on days 0, 5, 7, 10, 14 and 21 after oxalipaltin/vehicle administration.
as §5

[4] = tested on: Male Wistar rats; test: Oxaliplatin-induced mechanical allodynia (Dynamic Plantar Aesthesiometer); format: in vivo, rat; details: oxaliplatin model, days 14 and 21
Description: as §1
as §2, with “Behavioral testing was performed before oxaliplatin/vehicle administration (day-1), and at again on day 3-5-7-10-14-21 day following oxaliplatin/vehicle injection.” left out
To assess the development of mechanical allodynia, sensitivity to tactile stimulation was measured using the Dynamic Plantar Aesthesiometer (DPA, Ugo Basile, Italy). […]
as §5

[5] = tested on: Male Wistar rats; test: Oxaliplatin-induced cold allodynia (acetone test); format: in vivo, rat; details: oxaliplatin model
Description: as §1, §2
DF2726A (30 mg/kg/os) was dissolved in PBS and it was administrated, for 24 consecutive days starting 3 days before oxaliplatin administration and continuing for other 21 days after the first administration of oxaliplatin. During this period the compound was given 2 h after oxaliplatin treatment. Since DF2726A is a sodium salt it was dissolved at the concentration of 16 mg/ml, to reach the active drug dose of 30 mg/kg.
DF1681B was administered by continuous subcutaneous infusion using the ALZET osmotic pumps Model 2ML2 (Charles River). In order to obtain a rate of infusion of 8 mg/hr/kg as described by Cavalieri et al Int J Immunopathol Pharmacol, 2005, 18:475-86, DF1681B (9.37 g) was dissolved in sterile saline (25 ml) at a concentration of 375 mg/ml and vortexed for 10 min. Osmotic pumps were implanted under anesthesia (100 mg/kg ketamine and 10 mg/kg xylazine i.p.). Pumps were prepared according to Alzet instructions sheet. Briefly, pumps were filled with 2 ml of DF1681B solution or vehicle using sterile syringe. Finally, pumps were kept in water bath overnight in stove at 37° C. […]
as §6, with “(2).” for “(2). A drop of acetone was applied to the dorsal surface of paws with a syringe connected to a thin polyethylene tube while the rats was standing on a metal mesh.”
as §5

[6] = reparixin 10 μM in combination with paclitaxel 10 nM
[7] = DF2726A 30 mg/kg os once a day from day -3 to day 11, day 14 (after end of treatment)
[8] = DF2726A 30 mg/kg os once a day from day -3 to day 11, days 5 (P<0.05), 7 (P<0.001), 10 (P<0.001)
[9] = DF1681B continuous subcutaneous infusion from day -3 to day +11, day 14

## CC(C)Cc1ccc([C@@H](C)C(=O)NS(C)(=O)=O)cc1 [reparixin, R-(−)-2-(4-isobutylphenyl)propionyl methanesulfonamide]
[1]; [6]
  acetylated α-tubulin (marker of stable microtubules), immunofluorescence: acetylated α-tubulin appears similar to the control
  increased neurite thickness induced by paclitaxel treatment: able to abolish
  α-tubulin and β-tubulin immunofluorescence (dimer formation): able to counteract the effect of paclitaxel alone on dimer formation

## CC(=O)O[C@H]1C(=O)[C@@]2(C)[C@H]([C@H](OC(=O)c3ccccc3)[C@]3(O)C[C@H](OC(=O)[C@H](O)[C@@H](NC(=O)c4ccccc4)c4ccccc4)C(C)=C1C3(C)C)[C@]1(OC(C)=O)CO[C@@H]1C[C@@H]2O [paclitaxel, reference compound]
[1]; paclitaxel 10 nM alone
  acetylated α-tubulin (marker of stable microtubules), immunofluorescence: increased acetylated α-tubulin
  fluorescence intensity of β-tubulin: decrease of the fluorescence intensity of β-tubulin
  neurite diameter: increase of neurite diameter

## CC(C)(C(=O)[O-])c1ccc(Nc2nc(C(F)(F)F)cs2)cc1.[Na+] [DF2726A, 2-methyl-2-(4-{[4-(trifluoromethyl)-1,3-thiazol-2-yl]amino}phenyl)propanoic acid sodium salt]
[2]; [7]
  mechanical allodynia (paw withdrawal threshold) vs animals treated with vehicle: No additional significant antiallodynic effect
[2]; [8]
  mechanical allodynia (paw withdrawal threshold) vs animals treated with vehicle: significant reduction of mechanical allodynia
[3]; [7]
  cold allodynia (number of paw withdrawals) vs animals treated with vehicle: No additional antiallodynic effect
[3]; [8]
  cold allodynia (number of paw withdrawals) vs animals treated with vehicle: significant reduction of cold allodynia
[4]; DF2726A 30 mg/kg/os for 24 consecutive days from day -3
  mechanical allodynia (paw withdrawal threshold): significant antiallodynic effect
[5]; DF2726A 30 mg/kg/os for 24 consecutive days from day -3, day 3
  cold allodynia (number of paw withdrawals): did not show antiallodynic effect
[5]; DF2726A 30 mg/kg/os for 24 consecutive days from day -3, days 5, 7, 10, 14, 21
  cold allodynia (number of paw withdrawals): significant reduction of cold allodynia

## CC(C)Cc1ccc([C@@H](C)C(=O)NS(C)(=O)=O)cc1 [DF1681B, R(−)-2-(4-isobutylphenyl)propionyl methansulfonamide]
[2]; DF1681B continuous subcutaneous infusion by osmotic pump from day -3 to day +11, days 5 (P<0.01), 7 (P<0.001), 10 (P<0.001)
  mechanical allodynia (paw withdrawal threshold) vs animals treated with vehicle: significant reduction of mechanical allodynia
[2]; [9]
  mechanical allodynia (paw withdrawal threshold) vs animals treated with vehicle: No additional antiallodynic effect
[3]; [9]
  cold allodynia (number of paw withdrawals) vs animals treated with vehicle: No additional antiallodynic effect
[3]; DF1681B continuous subcutaneous infusion from day -3 to day +11, days 5 (P<0.01), 7 (P<0.001), 10 (P<0.001)
  cold allodynia (number of paw withdrawals) vs animals treated with vehicle: significant reduction of cold allodynia
[4]; DF1681B continuous subcutaneous infusion 8 mg/hr/kg from day -3
  mechanical allodynia (paw withdrawal threshold): significant antiallodynic effect
[5]; DF1681B continuous subcutaneous infusion 8 mg/hr/kg from day -3, day 3
  cold allodynia (number of paw withdrawals): did not show antiallodynic effect
[5]; DF1681B continuous subcutaneous infusion 8 mg/hr/kg from day -3, days 5, 7, 10, 14, 21
  cold allodynia (number of paw withdrawals): significant reduction of cold allodynia
